Eleven compounds from patent publication US20250129069A1, “TRIAZOLO WRN INHIBITORS” (Nimbus Wadjet, Inc., priority 2023, published 2025) can be followed below.

Like-named read-outs stand apart in the source and are kept apart here. Where only a bound is given, the exact number is not on record here.

Assay [1] has as its target human Werner helicase (WRN, amino acids 517-1235 with L1074F point mutation) (Homo sapiens (Human), UniProt Q14191, L1074F). As to the kind of experiment: WRN (BV08) ADP-Glo assay. Type of assay: biochemical. The following applies: human WRN (aa 517-1235, L1074F), read-out: ADP-Glo_hWRN_IC50. The source says:
Bovine skin gelatin (BSG), dimethyl sulfoxide (DMSO), Pluronic F-127 and tris(2-carboxyethyl)phosphine hydrochloride solution (TCEP) were purchased from Sigma-Aldrich (St. Louis, MO) at the highest level of purity possible. Bicine buffer solution was purchased from Alfa Aesar (Tewksbury, MA) and compound NSC-617145 was purchased from Tocris (Minneapolis, MN). DNA duplex was synthesized at BGI (Shenzhen, China) and was composed of strand 1 with the sequence 5′-[…]-3′ (SEQ ID NO.: 1) and strand 2 with the sequence 5′-[…]-3′ (SEQ ID NO.: 2). DNA strands were annealed by heating to 95° C. for 5 minutes followed by slow cooling to room temperature. Compounds in 100% DMSO (0.1 μl) were spotted into a 384-well white polystyrene Optiplate-384 (Perkin Elmer; Waltham, MA) assay plate using a LabCyte Echo 550 (Agilent; Santa Clara, CA). DMSO (0.1 μl) was added to columns 12, rows A-H and column 24, rows I-P for the maximum signal control. Compound NSC-617145 (0.1 μl) was added to columns 12, rows I-P and 24, rows A-H for the minimum signal control (100% inhibition). Compounds/DMSO were preincubated for 15 minutes at 25° C. with 5 μl 2×WRN (BV08), prepared as described below, in assay buffer containing 20 mM Bicine (pH=7.5), 1 mM MgCl2, 10 mM KCl, 0.1% Pluronic F-127, 0.005% BSG, 1 mM TCEP. The reaction was initiated by the addition of 5 μl 2× substrate mixture in assay buffer and incubated for 60 minutes at 25° C. The final concentrations of the assay components were 0.15 nM WRN, 5 μM ATP, and 0.1 nM DNA duplex. The final DMSO concentration was 1% and the reference compound concentration (NSC-617145) used for the minimal signal control was 20 μM. The reaction was stopped by the addition of the ADP-Glo Kit components (Promega; Madison, WI) as directed and the relative luminescence units (RLU) were read on an Envision 2104 (Perkin Elmer; Waltham, MA).
% inhibition calculation:
% INH=(RLU MAX−RLU sample)/(RLU MAX−RLU MIN))×100
Where RLU=relative luminescence units, sample=signal in sample well, and MIN and MAX are the respective minimum and maximum signal controls. Four-parameter IC50 fit equation:
Y=Bottom+(Top−Bottom)/(1+(IC50/X)^Hill Slope)
Where top and bottom are normally allowed to float but may be fixed at 100 or 0 respectively in a 3-parameter fit. Y is the % inhibition and X is the compound concentration.
Molecular Biology and virus production. The DNA encoding human Werner helicase (Uniprot Q14191, amino acids 517-1235 with L1074F point mutation) was generated with codon-optimization for E. coli expression and subcloned into the pFastBac vector with a TEV cleavable 8×His tag (WRN—BV08). The baculovirus from the expression plasmid WRN—BV08 was generated from transfection and amplification following the manufacturer's instructions.
Sf9 cells grown in SF900II media were infected with 1:200 WRN—BV08 P2 virus and incubated for protein expression for 72 h at 27° C. The WRN protein was purified using the following protocol. The cell pellets were thawed and resuspended in buffer A (50 mM Tris, pH 7.5, 500 mM NaCl, 1 mM TCEP, 10% Glycerol) supplemented with 0.5% CHAPS, 1 mM PMSF, […] Leupeptin, 1 μg/ml Pepstatin, and the Pierce Universal Nuclease and cocktail tablet. Cleared lysates were loaded onto a Ni Sepharose™ excel column and washed with buffer A and bound protein was eluted with buffer A supplemented with 300 mM imidazole. The eluted protein was dialyzed against buffer A and digested by His-tagged TEV (1:5 ratio) overnight at 4° C. ZnCl2 was added into the sample at final 15 μM before loading onto a second Ni Sepharose™ excel column. Untagged WRN protein was eluted from the column with buffer A supplemented with 20 mM imidazole, dialyzed overnight into buffer B (50 mM Tris, pH 7.5, 1 mM TCEP, 10% Glycerol) supplemented with 150 mM NaCl and loaded onto a Heparin column. Proteins were eluted with a step gradient of buffer B supplemented with 150 mM, 200 mM, 300 mM and 500 mM NaCl. […]
(In general: ADP-Glo turns the ADP formed in a reaction into a luminescent signal.)

Assay [2] relates to p21 induction in HCT 116 cells. Put plainly: p21 induction in cells (In-Cell Western, p21/GAPDH ratio). Type of assay: cell-based. The following applies: 24 h compound incubation, read-out: p21_EC50. A digest of the protocol: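 HCT 116 cells treated 24 h at 37° C with 11-point, 2-fold dilutions typically from 10 μM, in duplicate. Fixed cells co-stained for p21 (800 nm) and GAPDH (700 nm) by In-Cell Western. p21/GAPDH ratio normalised between DMSO and reference WRN inhibitor controls, and EC50 obtained by nonlinear regression.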

Chain of human Werner helicase (WRN, amino acids 517-1235 with L1074F point mutation) (Q14191 other isoform, or with tags, fused parts or gaps L1074F (already in the parent)): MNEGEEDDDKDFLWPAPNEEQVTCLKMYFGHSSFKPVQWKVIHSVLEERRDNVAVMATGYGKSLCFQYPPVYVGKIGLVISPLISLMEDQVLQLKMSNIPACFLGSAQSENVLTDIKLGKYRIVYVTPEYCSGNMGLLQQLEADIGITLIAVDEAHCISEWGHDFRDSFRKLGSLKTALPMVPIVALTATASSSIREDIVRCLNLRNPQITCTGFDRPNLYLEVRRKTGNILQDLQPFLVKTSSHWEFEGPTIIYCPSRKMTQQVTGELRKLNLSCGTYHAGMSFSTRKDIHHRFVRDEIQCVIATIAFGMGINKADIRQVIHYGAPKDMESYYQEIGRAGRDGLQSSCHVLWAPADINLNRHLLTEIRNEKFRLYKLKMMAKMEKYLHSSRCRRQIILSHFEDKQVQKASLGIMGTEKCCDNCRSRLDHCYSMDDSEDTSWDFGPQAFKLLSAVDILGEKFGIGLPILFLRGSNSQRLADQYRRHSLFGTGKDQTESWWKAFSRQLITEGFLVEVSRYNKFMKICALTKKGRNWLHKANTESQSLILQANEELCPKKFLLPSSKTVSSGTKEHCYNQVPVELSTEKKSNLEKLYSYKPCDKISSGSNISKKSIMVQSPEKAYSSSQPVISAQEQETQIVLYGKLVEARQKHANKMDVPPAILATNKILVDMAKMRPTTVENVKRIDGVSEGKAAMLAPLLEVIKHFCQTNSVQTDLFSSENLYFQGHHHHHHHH

`CCc1c(N2CCN(C(=O)c3c(O)ccc4ncoc34)CC2)c(=O)c2nn(-c3ccnc(OC)c3)nc2n1CC(=O)NC12CC(C(F)(F)F)(C1)C2` [Compound I-3, 2-(5-ethyl-6-(4-(6-hydroxybenzo[d]oxazole-7-carbonyl)piperazin-1-yl)-2-(2-methoxypyridin-4-yl)-7-oxo-2,7-dihydro-4H-[1,2,3]triazolo[4,5-b]pyridin-4-yl)-N-(3-(trifluoromethyl)bicyclo[1.1.1]pentan-1-yl)acetamide]: the IC50 in assay [1] lay in the range of 5 to 50 nM. Moreover, the EC50 in assay [2] was at most 500 nM.
For `CCc1c(N2CCN(C(=O)c3c(O)ccc4ncoc34)[C@H]3CC[C@@H]32)c(=O)c2nn(-c3ccnc(OC)c3)nc2n1CC(=O)NC12CC(C(F)(F)F)(C1)C2` [Compound I-4, 2-(5-ethyl-6-((1S,6S)-5-(6-hydroxybenzo[d]oxazole-7-carbonyl)-2,5-diazabicyclo[4.2.0]octan-2-yl)-2-(2-methoxypyridin-4-yl)-7-oxo-2,7-dihydro-4H-[1,2,3]triazolo[4,5-b]pyridin-4-yl)-N-(3-(trifluoromethyl)bicyclo[1.1.1]pentan-1-yl)acetamide] the same measures were 5 to 50 nM and at most 500 nM.
For `CCc1c(N2CCN(C(=O)c3ncnc(C)c3O)CC2)c(=O)c2nn(-c3ccnc(OC)c3)nc2n1CC(=O)NC12CC(C(F)(F)F)(C1)C2` [Compound I-5, 2-(5-ethyl-6-(4-(5-hydroxy-6-methylpyrimidine-4-carbonyl)piperazin-1-yl)-2-(2-methoxypyridin-4-yl)-7-oxo-2,7-dihydro-4H-[1,2,3]triazolo[4,5-b]pyridin-4-yl)-N-(3-(trifluoromethyl)bicyclo[1.1.1]pentan-1-yl)acetamide] the same measures were 5 to 50 nM and 500 to 2000 nM.
In the case of `CCc1c(N2CCN(C(=O)c3ncnc(C)c3O)CC2)c(=O)c2nn(-c3ccnc(C)c3)nc2n1CC(=O)Nc1ccc(C(F)(F)F)cc1Cl` [Compound I-7, N-(2-chloro-4-(trifluoromethyl)phenyl)-2-(5-ethyl-6-(4-(5-hydroxy-6-methylpyrimidine-4-carbonyl)piperazin-1-yl)-2-(2-methylpyridin-4-yl)-7-oxo-2,7-dihydro-4H-[1,2,3]triazolo[4,5-b]pyridin-4-yl)acetamide], in assay [1], the IC50 is at most 5 nM. Also, the EC50 in assay [2] (Homo sapiens) was at most 500 nM.
For `CCc1c(N2CCN(C(=O)c3ncnc(C)c3O)CC2)c(=O)c2nn(-c3ccn(C4CC4)n3)nc2n1CC(=O)Nc1ccc(C(F)(F)F)cc1Cl` [Compound I-8, N-(2-chloro-4-(trifluoromethyl)phenyl)-2-(2-(1-cyclopropyl-1H-pyrazol-3-yl)-5-ethyl-6-(4-(5-hydroxy-6-methylpyrimidine-4-carbonyl)piperazin-1-yl)-7-oxo-2,7-dihydro-4H-[1,2,3]triazolo[4,5-b]pyridin-4-yl)acetamide] the same measures were at most 5 nM and at most 500 nM.
For `CCc1c(N2CCN(C(=O)c3ncnc(C)c3O)[C@H]3CC[C@@H]32)c(=O)c2nn(-c3ccnc(C)c3)nc2n1CC(=O)Nc1ccc(C(F)(F)F)cc1Cl` [Compound I-9, N-(2-chloro-4-(trifluoromethyl)phenyl)-2-(5-ethyl-6-((1S,6S)-5-(5-hydroxy-6-methylpyrimidine-4-carbonyl)-2,5-diazabicyclo[4.2.0]octan-2-yl)-2-(2-methylpyridin-4-yl)-7-oxo-2,7-dihydro-4H-[1,2,3]triazolo[4,5-b]pyridin-4-yl)acetamide] the same measures were 5 to 50 nM and at most 500 nM.
For `CCc1c(N2CCN(C(=O)c3ncnc(C)c3O)[C@H]3CC[C@@H]32)c(=O)c2nn(-c3ccnc(OC)c3)nc2n1CC(=O)NC12CC(C3CC3)(C1)C2` [Compound I-10, N-(3-cyclopropylbicyclo[1.1.1]pentan-1-yl)-2-(5-ethyl-6-((1S,6S)-5-(5-hydroxy-6-methylpyrimidine-4-carbonyl)-2,5-diazabicyclo[4.2.0]octan-2-yl)-2-(2-methoxypyridin-4-yl)-7-oxo-2,7-dihydro-4H-[1,2,3]triazolo[4,5-b]pyridin-4-yl)acetamide] the same measures were 5 to 50 nM and at most 500 nM.
On to `CCc1c(N2CCN(C(=O)c3ncnc(C)c3O)[C@H]3CC[C@@H]32)c(=O)c2nn(-c3ccnc(OC)c3)nc2n1CC(=O)NC12CC(C(F)(F)F)(C1)C2` [Compound I-11, 2-(5-ethyl-6-((1S,6S)-5-(5-hydroxy-6-methylpyrimidine-4-carbonyl)-2,5-diazabicyclo[4.2.0]octan-2-yl)-2-(2-methoxypyridin-4-yl)-7-oxo-2,7-dihydro-4H-[1,2,3]triazolo[4,5-b]pyridin-4-yl)-N-(3-(trifluoromethyl)bicyclo[1.1.1]pentan-1-yl)acetamide], for which, in assay [1], the IC50 is 5 to 50 nM. Also, in assay [2] (Homo sapiens), the EC50 was at most 500 nM.
Consider `CCc1c(N2CCN(C(=O)c3ncnc(C)c3O)[C@H]3CC[C@@H]32)c(=O)c2nn(C3=CCOCC3)nc2n1CC(=O)Nc1ccc(C(F)(F)F)cc1F` [Compound I-12, 2-(2-(3,6-dihydro-2H-pyran-4-yl)-5-ethyl-6-((1S,6S)-5-(5-hydroxy-6-methylpyrimidine-4-carbonyl)-2,5-diazabicyclo[4.2.0]octan-2-yl)-7-oxo-2,7-dihydro-4H-[1,2,3]triazolo[4,5-b]pyridin-4-yl)-N-(2-fluoro-4-(trifluoromethyl)phenyl)acetamide], for which the IC50 in assay [1] is at most 5 nM. For the same compound, the EC50 in assay [2] (Homo sapiens) was at most 500 nM.
For `CCc1c(N2CCN(C(=O)c3ncnc(C)c3O)[C@H]3CC[C@@H]32)c(=O)c2nn(-c3ccnc(OC)c3)nc2n1CC(=O)NC12CC(C(C)C)(C1)C2` [Compound I-14, 2-(5-ethyl-6-((1S,6S)-5-(5-hydroxy-6-methylpyrimidine-4-carbonyl)-2,5-diazabicyclo[4.2.0]octan-2-yl)-2-(2-methoxypyridin-4-yl)-7-oxo-2,7-dihydro-4H-[1,2,3]triazolo[4,5-b]pyridin-4-yl)-N-(3-isopropylbicyclo[1.1.1]pentan-1-yl)acetamide] the same measures were 5 to 50 nM and at most 500 nM.
As to `CCc1c(N2CCN(C(=O)c3c(OC)ncc(C)c3O)[C@H]3CC[C@@H]32)c(=O)c2nn(-c3ccnc(OC)c3)nc2n1CC(=O)NC12CC(C(C)C)(C1)C2` [Compound I-17, 2-(5-ethyl-6-((1S,6S)-5-(4-hydroxy-2-methoxy-5-methylnicotinoyl)-2,5-diazabicyclo[4.2.0]octan-2-yl)-2-(2-methoxypyridin-4-yl)-7-oxo-2,7-dihydro-4H-[1,2,3]triazolo[4,5-b]pyridin-4-yl)-N-(3-isopropylbicyclo[1.1.1]pentan-1-yl)acetamide], the IC50 in assay [1] fell in the range of 5 to 50 nM. For the same compound, the EC50 in assay [2] was at most 500 nM.
